Among the data in patent US11130756B2, “[1,2,4]Triazolo[4,3-A]pyridinyl substituted indole compounds” (BRISTOL-MYERS SQUIBB COMPANY, priority 2017, dated 2021) are IC50 values, retold here.

Assay type in all cases: cell-based
The target in one assay is T1, human TLR7 (Homo sapiens, UniProt Q9NYK1).
T1 construct: host or cells: HEK-Blue cells
T1 sequence (Q9NYK1 27-1049): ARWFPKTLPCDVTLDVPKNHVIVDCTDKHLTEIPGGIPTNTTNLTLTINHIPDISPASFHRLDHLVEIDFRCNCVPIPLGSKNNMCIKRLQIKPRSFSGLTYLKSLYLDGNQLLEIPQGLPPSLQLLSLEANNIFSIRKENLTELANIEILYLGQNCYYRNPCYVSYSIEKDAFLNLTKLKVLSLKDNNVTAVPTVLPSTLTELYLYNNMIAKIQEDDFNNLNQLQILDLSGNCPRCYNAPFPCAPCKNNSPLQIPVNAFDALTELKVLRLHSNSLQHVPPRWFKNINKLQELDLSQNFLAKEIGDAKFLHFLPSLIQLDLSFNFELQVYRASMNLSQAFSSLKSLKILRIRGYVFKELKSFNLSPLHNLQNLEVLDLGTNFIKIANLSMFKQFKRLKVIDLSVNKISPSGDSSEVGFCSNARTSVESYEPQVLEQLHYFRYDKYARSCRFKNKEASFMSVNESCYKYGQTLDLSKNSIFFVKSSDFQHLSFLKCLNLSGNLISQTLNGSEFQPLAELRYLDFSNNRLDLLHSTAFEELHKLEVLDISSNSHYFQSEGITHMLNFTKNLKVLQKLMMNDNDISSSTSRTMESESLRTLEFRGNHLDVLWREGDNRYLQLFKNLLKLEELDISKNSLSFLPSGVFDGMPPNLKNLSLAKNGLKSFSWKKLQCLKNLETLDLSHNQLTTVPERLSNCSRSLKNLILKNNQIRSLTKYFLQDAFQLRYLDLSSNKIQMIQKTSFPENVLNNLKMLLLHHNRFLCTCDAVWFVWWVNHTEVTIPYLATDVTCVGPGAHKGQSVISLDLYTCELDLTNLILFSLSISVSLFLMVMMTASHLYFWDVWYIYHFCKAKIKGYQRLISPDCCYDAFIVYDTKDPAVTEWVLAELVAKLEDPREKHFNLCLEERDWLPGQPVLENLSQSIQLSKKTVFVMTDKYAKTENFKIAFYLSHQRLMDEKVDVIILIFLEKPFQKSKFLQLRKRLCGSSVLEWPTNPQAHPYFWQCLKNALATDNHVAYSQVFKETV
The assay can be described thus: TLR7 inhibition reporter assay (HEK-Blue, SEAP). As to conditions: HEK-Blue cells overexpressing human TLR7, gardiquimod 7.5 μM, 22 hour incubation. The essentials:
(§1)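 Agonists used: gardiquimod 7.5 μM (TLR7), R848 15.9 μM (TLR8), ODN2006 5 nM (TLR9), added after 30 min room-temperature compound pre-treatment (0.05 nM–50 μM) of receptor-overexpressing HEK-Blue cells. SEAP reporter (NF-κB/AP-1 driven) read after 22 h at 37 °C; inhibition scaled between agonist+DMSO and reference-inhibitor wells.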
On the technique in general: In a reporter assay the amount or activity of a reporter protein is the signal.

A further assay addresses T2, human TLR9 (Homo sapiens, UniProt Q9NR96).
T2 construct: host or cells: HEK-Blue cells
T2 sequence (Q9NR96 26-1032): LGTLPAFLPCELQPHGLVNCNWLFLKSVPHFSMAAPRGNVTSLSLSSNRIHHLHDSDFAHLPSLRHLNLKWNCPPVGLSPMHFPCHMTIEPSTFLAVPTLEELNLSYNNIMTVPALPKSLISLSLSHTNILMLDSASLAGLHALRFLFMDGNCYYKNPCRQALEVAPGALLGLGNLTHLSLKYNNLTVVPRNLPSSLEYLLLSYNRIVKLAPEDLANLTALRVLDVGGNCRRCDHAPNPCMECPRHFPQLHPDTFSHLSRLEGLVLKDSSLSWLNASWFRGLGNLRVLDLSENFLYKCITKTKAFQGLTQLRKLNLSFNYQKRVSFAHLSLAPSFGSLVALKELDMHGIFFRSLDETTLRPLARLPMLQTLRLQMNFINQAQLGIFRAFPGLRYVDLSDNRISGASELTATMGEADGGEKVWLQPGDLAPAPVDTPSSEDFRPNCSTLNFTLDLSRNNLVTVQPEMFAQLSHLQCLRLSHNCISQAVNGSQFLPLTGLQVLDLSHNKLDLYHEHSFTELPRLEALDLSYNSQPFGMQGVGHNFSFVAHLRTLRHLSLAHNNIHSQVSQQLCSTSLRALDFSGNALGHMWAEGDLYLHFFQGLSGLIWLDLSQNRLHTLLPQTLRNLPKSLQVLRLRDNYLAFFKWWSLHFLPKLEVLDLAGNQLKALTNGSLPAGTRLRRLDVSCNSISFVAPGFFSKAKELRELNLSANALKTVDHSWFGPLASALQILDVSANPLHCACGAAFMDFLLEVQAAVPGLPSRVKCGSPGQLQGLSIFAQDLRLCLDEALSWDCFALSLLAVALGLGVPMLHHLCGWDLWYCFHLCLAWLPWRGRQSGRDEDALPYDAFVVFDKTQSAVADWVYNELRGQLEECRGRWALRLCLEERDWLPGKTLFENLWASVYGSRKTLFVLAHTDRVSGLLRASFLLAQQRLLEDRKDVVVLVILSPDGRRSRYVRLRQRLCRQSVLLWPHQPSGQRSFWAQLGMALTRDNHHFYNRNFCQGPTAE
The assay can be described thus: TLR9 inhibition reporter assay (HEK-Blue, SEAP). As to conditions: HEK-Blue cells overexpressing human TLR9, ODN2006 5 nM, 22 hour incubation. Put shortly: as §1

Another assay has as its target T3, human TLR8 (Homo sapiens, UniProt Q9NR97).
T3 construct: host or cells: HEK-Blue cells
T3 sequence (Q9NR97 27-1041): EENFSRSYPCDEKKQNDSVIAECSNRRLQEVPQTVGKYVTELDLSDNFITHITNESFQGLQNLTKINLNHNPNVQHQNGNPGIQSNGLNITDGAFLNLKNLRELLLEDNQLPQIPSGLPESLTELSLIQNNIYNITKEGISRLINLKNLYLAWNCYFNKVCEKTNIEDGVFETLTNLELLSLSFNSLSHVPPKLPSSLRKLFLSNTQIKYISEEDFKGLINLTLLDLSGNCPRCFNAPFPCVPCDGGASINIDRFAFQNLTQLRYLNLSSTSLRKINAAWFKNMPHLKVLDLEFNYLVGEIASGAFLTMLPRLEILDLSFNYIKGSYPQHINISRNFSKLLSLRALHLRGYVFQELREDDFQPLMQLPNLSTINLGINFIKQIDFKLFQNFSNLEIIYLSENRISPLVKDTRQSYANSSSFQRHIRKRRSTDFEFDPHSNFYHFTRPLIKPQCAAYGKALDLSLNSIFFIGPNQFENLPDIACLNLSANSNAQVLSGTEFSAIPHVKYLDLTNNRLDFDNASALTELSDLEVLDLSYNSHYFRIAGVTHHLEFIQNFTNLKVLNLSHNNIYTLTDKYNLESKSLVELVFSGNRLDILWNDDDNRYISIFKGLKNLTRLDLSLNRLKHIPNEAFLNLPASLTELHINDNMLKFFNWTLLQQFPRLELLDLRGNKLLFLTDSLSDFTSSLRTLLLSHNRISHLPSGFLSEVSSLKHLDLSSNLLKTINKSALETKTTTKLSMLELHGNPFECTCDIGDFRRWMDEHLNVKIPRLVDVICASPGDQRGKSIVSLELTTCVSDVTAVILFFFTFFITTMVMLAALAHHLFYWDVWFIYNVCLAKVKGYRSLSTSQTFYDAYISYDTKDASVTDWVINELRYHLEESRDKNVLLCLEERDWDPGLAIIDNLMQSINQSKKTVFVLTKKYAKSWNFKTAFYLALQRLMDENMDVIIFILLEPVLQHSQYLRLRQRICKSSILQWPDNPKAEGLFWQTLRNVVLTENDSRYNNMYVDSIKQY
The assay can be described thus: TLR8 inhibition reporter assay (HEK-Blue, SEAP). As to conditions: HEK-Blue cells overexpressing human TLR8, R848 15.9 μM, 22 hour incubation. The essentials:
as §1

As to `Cc1cc(-c2[nH]c3ccc(C4CCN(C5CCOCC5)CC4)cc3c2C(C)C)cn2cnnc12` [Example 69, 6-(3-isopropyl-5-(1-(tetrahydro-2H-pyran-4-yl)piperidin-4-yl)-1H-indol-2-yl)-8-methyl-[1,2,4]triazolo[4,3-a]pyridine], the figures for the IC50 on human TLR7, at human TLR9 and at human TLR8 were 0.6 nM, 1040 nM and 3 nM, respectively.

For `Cc1c(-c2[nH]c3ccc(C4CCN(C5CCOCC5)CC4)cc3c2C(C)C)ccc2nncn12` [Example 70, 6-(3-isopropyl-5-(1-(tetrahydro-2H-pyran-4-yl)piperidin-4-yl)-1H-indol-2-yl)-5-methyl-[1,2,4]triazolo[4,3-a]pyridine], the half-inhibitory concentration (IC50) against human TLR7 was 83.5 nM; at human TLR9, 1070 nM; on human TLR8, 10.8 nM.

On to `Cc1cc(-c2[nH]c3ccc(C4CCN(Cc5ccn(C)n5)CC4)cc3c2C(C)C)cn2c(C)nnc12` [Example 71, 6-(3-isopropyl-5-(1-((1-methyl-1H-pyrazol-3-yl)methyl)piperidin-4-yl)-1H-indol-2-yl)-3,8-dimethyl-[1,2,4]triazolo[4,3-a]pyridine], for which the IC50 against human TLR7 was 12.7 nM; at human TLR9, 1130 nM; against human TLR8 it was 1.8 nM.

With `Cc1cc(-c2[nH]c3ccc(C4CCN(C5COC5)CC4)cc3c2C(C)C)cn2c(C)nnc12` [Example 72, 6-(3-isopropyl-5-(1-(oxetan-3-yl)piperidin-4-yl)-1H-indol-2-yl)-3,8-dimethyl-[1,2,4]triazolo[4,3-a]pyridine], the half-maximal inhibitory concentration (IC50) on human TLR7 was 11.8 nM; against human TLR9, 7870 nM; on human TLR8, 11.7 nM.

For the compound `Cc1cc(-c2[nH]c3ccc(C4CCN(C5CCOCC5)CC4)cc3c2C(C)C)cn2c(C)nnc12` [Example 73, 6-(3-isopropyl-5-(1-(tetrahydro-2H-pyran-4-yl)piperidin-4-yl)-1H-indol-2-yl)-3,8-dimethyl-[1,2,4]triazolo [4,3-a]pyridine], the results for the concentration for half-maximal inhibition (IC50) at human TLR7, against human TLR9 and on human TLR8 were 20.4 nM, 562 nM and 1.9 nM, respectively.

Regarding `Cc1cc(-c2[nH]c3ccc(C4CCN(Cc5ccn(C)n5)CC4)cc3c2C(C)C)cn2cnnc12` [Example 74, 6-(3-isopropyl-5-(1-((1-methyl-1H-pyrazol-3-yl)methyl)piperidin-4-yl)-1H-indol-2-yl)-8-methyl-[1,2,4]triazolo[4,3-a]pyridine], the IC50 was determined as 1.2 nM on human TLR7, 908 nM on human TLR9 and 1.7 nM against human TLR8.

Consider `Cc1c(-c2[nH]c3ccc(C4CCN(C5COC5)CC4)cc3c2C(C)C)cn2cnnc2c1C` [Example 75, 6-(3-isopropyl-5-(1-(oxetan-3-yl)piperidin-4-yl)-1H-indol-2-yl)-7,8-dimethyl-[1,2,4]triazolo[4,3-a]pyridine], for which the results for the IC50 at human TLR7, at human TLR9 and against human TLR8 were 3.3 nM, 23800 nM and 21.7 nM, respectively.

For the compound `Cc1cc(-c2[nH]c3ccc(C4CCN(C5COC5)CC4)cc3c2C(C)C)c(C)n2cnnc12` [Example 76, 6-(3-isopropyl-5-(1-(oxetan-3-yl)piperidin-4-yl)-1H-indol-2-yl)-5,8-dimethyl-[1,2,4]triazolo[4,3-a]pyridine], the IC50 was determined as 106 nM on human TLR7, 16100 nM against human TLR9 and 13.1 nM against human TLR8.

For `Cc1cc(-c2[nH]c3ccc(C4CCN(C5CCOCC5)CC4)cc3c2C(C)C)c(C)n2cnnc12` [Example 77, 6-(3-isopropyl-5-(1-(tetrahydro-2H-pyran-4-yl)piperidin-4-yl)-1H-indol-2-yl)-5,8-dimethyl-[1,2,4]triazolo[4,3-a]pyridine], the figures for the IC50 on human TLR7, on human TLR9 and against human TLR8 were 55.9 nM, 4190 nM and 3.6 nM, respectively.

Turning to `Cc1c(-c2[nH]c3ccc(C4CCN(C5CCOCC5)CC4)cc3c2C(C)C)cn2cnnc2c1C` [Example 78, 6-(3-isopropyl-5-(1-(tetrahydro-2H-pyran-4-yl)piperidin-4-yl)-1H-indol-2-yl)-7,8-dimethyl-[1,2,4]triazolo[4,3-a]pyridine], the IC50 was determined as 1.3 nM at human TLR7, 1780 nM against human TLR9 and 4.6 nM against human TLR8.

Consider `Cc1c(-c2[nH]c3ccc(C4CCN(CC5(C)COC5)CC4)cc3c2C(C)C)cn2cnnc2c1C` [Example 79, 6-(3-isopropyl-5-(1-((3-methyloxetan-3-yl)methyl)piperidin-4-yl)-1H-indol-2-yl)-7,8-dimethyl-[1,2,4]triazolo[4,3-a]pyridine], for which the IC50 against human TLR7 came out at 1.1 nM; on human TLR9, 3530 nM; at human TLR8 it was 2 nM.

Turning to `Cc1c(-c2[nH]c3ccc(C4CCN(CC5(C)COC5)CC4)cc3c2C(C)C)cn2cnnc2c1Cl` [Example 80, 8-chloro-6-(3-isopropyl-5-(1-((3-methyloxetan-3-yl)methyl)piperidin-4-yl)-1H-indol-2-yl)-7-methyl-[1,2,4]triazolo[4,3-a)pyridine], the IC50 on human TLR7 stood at 2.3 nM; on human TLR9, 4550 nM; against human TLR8, 5.8 nM.

Broadly, the IC50 is the concentration that inhibits the measured activity by half.
